Reference: patent publication US20240115744A1, “FIBRIN-BINDING COMPOUNDS FOR IMAGING AND TREATMENT” (Collagen Medical, LLC, priority 2019, published 2024)
*1 amine or outer side, *2 acyl side, *3 side chain or, on linkers, in order; H or OH if unused. Where a SMILES comes first, the peptide text is derived from it. Bridges are numbered along the chain shown (N, C = ends). [ ]: non-standard residue; d: D form. The star is where a group is joined. NODAGA = O=C(O)CN1CCN(CC(=O)O)CCN(C(CCC(=O)*)C(=O)O)CC1; Tyr(3-Cl) = N[C@@H](Cc1ccc(O)c(Cl)c1)C(=O)O; Nicotinoyl(6-F) = O=C(c1ccc(F)nc1)*; X1 = O=C([C@@H]1CC(O)CN1[*:1])[*:2]; Hyp = O=C(O)[C@@H]1C[C@@H](O)CN1

T1: human fibrin (human, UniProt P02671 36-629; P02675 45-491; P02679 27-437, limits assumed)
T1 construct: also called clotted fibrin; immobilized fibrin
T1 sequence (looked up) 1: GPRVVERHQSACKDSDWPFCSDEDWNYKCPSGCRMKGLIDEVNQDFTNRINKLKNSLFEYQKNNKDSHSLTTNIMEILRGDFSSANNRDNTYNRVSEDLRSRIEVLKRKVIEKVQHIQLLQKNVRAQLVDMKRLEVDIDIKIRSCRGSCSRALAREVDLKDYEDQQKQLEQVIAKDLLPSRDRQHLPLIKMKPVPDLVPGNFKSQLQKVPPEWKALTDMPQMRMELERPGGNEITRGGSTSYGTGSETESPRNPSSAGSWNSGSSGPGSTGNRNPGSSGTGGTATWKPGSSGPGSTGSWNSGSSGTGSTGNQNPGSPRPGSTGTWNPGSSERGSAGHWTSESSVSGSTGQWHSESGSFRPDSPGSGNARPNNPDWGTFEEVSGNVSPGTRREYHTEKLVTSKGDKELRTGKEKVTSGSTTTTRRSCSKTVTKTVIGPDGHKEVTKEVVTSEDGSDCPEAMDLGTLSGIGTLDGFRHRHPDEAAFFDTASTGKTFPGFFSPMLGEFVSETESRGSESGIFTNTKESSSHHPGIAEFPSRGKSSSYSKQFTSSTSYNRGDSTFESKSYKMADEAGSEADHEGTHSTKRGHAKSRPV
T1 sequence (looked up) 2: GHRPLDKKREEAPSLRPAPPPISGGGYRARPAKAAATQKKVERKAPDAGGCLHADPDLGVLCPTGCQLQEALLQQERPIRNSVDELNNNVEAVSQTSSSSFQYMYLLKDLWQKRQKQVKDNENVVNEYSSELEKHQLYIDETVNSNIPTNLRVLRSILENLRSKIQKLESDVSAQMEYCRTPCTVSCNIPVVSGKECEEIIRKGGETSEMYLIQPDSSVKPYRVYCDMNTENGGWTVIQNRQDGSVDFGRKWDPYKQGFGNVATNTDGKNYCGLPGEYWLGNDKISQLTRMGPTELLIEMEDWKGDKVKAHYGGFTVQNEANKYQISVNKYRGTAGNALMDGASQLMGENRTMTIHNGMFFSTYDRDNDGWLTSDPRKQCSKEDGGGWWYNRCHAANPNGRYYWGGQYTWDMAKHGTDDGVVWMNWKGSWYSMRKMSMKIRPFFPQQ
T1 sequence (looked up) 3: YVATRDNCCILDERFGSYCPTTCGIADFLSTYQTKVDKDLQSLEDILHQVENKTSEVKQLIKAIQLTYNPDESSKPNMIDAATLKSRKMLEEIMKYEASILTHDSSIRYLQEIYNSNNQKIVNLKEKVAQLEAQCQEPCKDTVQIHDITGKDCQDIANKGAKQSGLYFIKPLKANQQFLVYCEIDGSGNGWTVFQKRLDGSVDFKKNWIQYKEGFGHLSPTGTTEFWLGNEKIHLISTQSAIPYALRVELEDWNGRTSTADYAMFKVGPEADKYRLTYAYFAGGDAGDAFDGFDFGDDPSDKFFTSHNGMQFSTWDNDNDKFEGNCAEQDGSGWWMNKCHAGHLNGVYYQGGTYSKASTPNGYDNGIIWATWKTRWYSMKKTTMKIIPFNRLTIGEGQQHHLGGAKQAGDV


What was measured:
[1] = Stability in rat plasma at 37° C. up to 4 h; assay type: in vitro ADME; settings: after 4 h
Procedure: The six compounds identified in Example 3 (Compounds 2, 3, 4, 5, 6, and 7) were assayed for stability in rat plasma at 37° C. for up to 4 h. Compounds were dissolved in DMSO to a make a stock solution (0.6 mM). Plasma (995 μL) was spiked with peptide stock solution (5 μL). Incubations were carried at a test compound concentration of 3 μM with a final DMSO concentration of […]. The spiked plasma samples were incubated at 37° C. for 4 h. Aliquots (300 μL) were removed at 0, 0.5, 1, 2 and 4 h and reactions were terminated by adding 600 μL of cold acetonitrile with 0.1% formic acid containing carbutamide (25 μg/mL) as an internal standard. Simultaneously, a plasma sample (995 μL) containing a mixture of benfluorex, propranolol and nortriptyline (40 μM in DMSO) control compounds was also incubated alongside each batch of test compounds and terminated similarly. […] Following centrifugation, the concentration of the compound of interest in the supernatant was quantified by LCMS. […] The peak area for each detected compound was measured to determine the % remaining of each compound and the result was compared with standards of pure compound and compound immediately isolated from plasma (t=0 sample). All assay samples were analyzed in triplicate. […]

[2] = biological target: T2, soluble fibrin fragment DD(E) (Homo sapiens, UniProt P02671+P02675+P02679, DEL433-453); assay: Fluorescence polarization DD(E) binding/displacement assay; settings: for Ki: displacement of TRITC-labelled peptide from DD(E), TBS·Ca with 2% DMSO, estimated uncertainty ±10%, read-out: Ki; for Kd: sub-micromolar affinity, read-out: affinity (Kd) to fibrin as assessed by DD(E) assay
T2 construct: partial plasmin digestion of purified fibrin gel followed by size-exclusion chromatographic purification; made in house
Procedure: DD(E) was prepared using a published procedure which involved partial plasmin digestion of purified fibrin gel followed by size-exclusion chromatographic purification, and purity was assessed by SDS-PAGE. Peptides modified at the N-terminus with tetramethyl-rhodamine (TRITC) dye bind to DD(E). Direct fluorescent peptide binding to DD(E) was measured by a fluorescence polarization (FP) assay. The anisotropy (robs) of the fluorescently labeled peptides binding to DD(E) (0-20 μM) was measured in Tris buffered saline (50 mM Tris, 100 mM NaCl and 2 mM CaCl2) at fixed compound concentrations, and the data were fit to a single site model (Eq. 1) to obtain the dissociation constant (Kd) for the DD(E)·(fluorescent peptide) complex.
Displacement of the fluorescent peptide by non-fluorescent compound was measured to determine inhibition constants (Ki). In the presence of an inhibitor, an apparent dissociation constant for the fluorescent compound (Kd app) is determined using Eq. 2. The inhibition constant Ki is related to Kd app by Eq. 2, wherein Kd is the true dissociation constant of the fluorescent compound measured in the absence of inhibitor.
Non-labeled peptide binding to DD(E) was measured by a compound displacement assay, where a DD(E)/Fl·pep complex formed at fixed concentrations of DD(E) and Fl·pep was titrated with increasing concentrations of unlabeled compound. The compound was assayed by mixing DD(E) (4.0 μM, 10 μL) and TRITC (0.1 μM, 10 μL) with increasing concentrations of competing peptide (0.4-100 μM, 20 μL) in TBS·Ca with 2% DMSO in a final volume of 40 μL. Fluorescence polarization of the samples (10 μL, triplicate wells) in ascending concentrations was measured in a 384-well microplate (Corning flat black plate), using a Tecan Infinite 200 Pro fluorescence microplate reader equipped with fluorescence polarization filters, a 535 nm excitation filter and a 590 nm fluorescence emission filter. Average polarization (mP units) readings for each dilution of the compound of interest was converted to anisotropy (r) using Eq. 3.
The data defined a displacement curve (robs vs. [Peptide]), and the inhibitory binding constant, Ki, was determined by least squares fitting of the data (estimated uncertainty in Ki±10%). See Table 2 for the Ki values for the Compounds from Example 1.

[3] = Radio-HPLC analysis of blood for identification of metabolites; assay type: in vivo; settings: rat plasma 15 and 90 min after injection
Procedure: Adult male Wistar rats were anesthetized by isoflurane (1-2% in medical air). Body temperature was maintained at 37° C. using a thermo-regulated heating pad. The right femoral vein and artery were cannulated for compound injection and blood sampling, respectively. Endothelial injury was induced by crush injury to the right common carotid artery (1-2 cm proximal to the carotid bifurcation) by clamping the vessel with a hemostat for 5 minutes. Immediately following the surgical procedures, rats were placed in a micro-PET/CT scanner. Compound (200-600 μL) was injected, PET-CT images were acquired, and blood samples were drawn from the femoral artery prior to compound injection and at 2, 5, 10, 15, 30, 60, 90, 120 min post injection. Tissues were harvested at the end for ex vivo analyses.
Aliquots of the 15 and 90 min plasma samples were injected into a HPLC and fractions were collected each 30 seconds. The fractions counted were compared to pure compound injected into the same column in order to identify the number of metabolites and the fraction of intact compound circulating at each time point.

[4] = biological target: T1, human fibrin; assay: radioactivity plate assay on immobilized human fibrin, in TBS buffer
Procedure: Human fibrinogen (1 g) was dissolved in 30 mL of TBS buffer (50 mM Tris, 150 mM NaCl, 5 mM sodium citrate, pH 7.4) and dialyzed in a Slyde-a-Lyzer (20 000 MWCO, Cassette G2) at room temperature. After two changes of buffer, the fibrinogen was centrifuged (10 min, 2000×g) to remove undissolved material. Fibrinogen concentration was determined by measuring the absorbance at 280 nm. Stock fibrinogen solution concentration was 32.1 mg/mL. Fibrin plates with alternating rows of clotted fibrin and empty wells were prepared by polymerizing fibrinogen (100 μL; 2.5 mg/mL) with thrombin (1 U/mL) in TBS·citrate supplemented with 7 mM CaCl₂ in the wells of a 96 well polystyrene microtiter plate (Immulon-II®). […] Clottable protein in individual fibrinogen batches was determined by measuring 280 nm absorbance of the soluble fraction of the solution before and after thrombin treatment, and was generally ≥96% (Fibrin concentration, 7.56 μM).
An aliquot (100 μL) from a known activity (52 μCi in 10 mL TBS buffer) of Compound ¹⁸F-7 was added to a series of 12 known concentrations (0.01-50 μM) of cold Compound 7 (550 μL) in TBS buffer and mixed well to prepare 12 stock solutions. […] All aliquots from supernatants as well as an aliquot (90 μL) from each stock solution were weighed and activity of each was measured using a Cobra 5002 gamma counter. […]

[5] = biological target: T1, human fibrin; assay: radioactivity plate assay on immobilized human fibrin, in human plasma

| Molecule | stability in rat plasma [1] | Ki [2] | Kd [2] | metabolites / intact compound in blood [3] | Kd [4] | Kd [5] |
| --- | --- | --- | --- | --- | --- | --- |
| CC[C@H](C)[C@H](NC(=O)[C@H](Cc1ccc(O)cc1)NC(=O)[C@@H]1CSSC[C@H](NC(=O)[C@@H](CCC(=O)O)NC(=O)[C@H](Cc2ccc(O)cc2)NC(=O)c2ccc(F)nc2)C(=O)N2C[C@H](O)C[C@H]2C(=O)N[C@@H](Cc2ccc(O)c(Cl)c2)C(=O)NCC(=O)N[C@@H](CC(C)C)C(=O)N1)C(=O)N[C@@H](CCC(N)=O)C(N)=O [Compound 7, -Y-e-C-Hyp-Y(3-Cl)-G-L-C-Y-I-Q-] ({Nicotinoyl(6-F)}-Y[dE]C[Hyp][Tyr(3-Cl)]GLCYIQ-NH2; disulfide 3-8) | greatest stability | 580 nM | < 600 nM | – | – | – |
| CC[C@H](C)[C@H](NC(=O)[C@H](Cc1ccc(O)cc1)NC(=O)[C@@H]1CSSC[C@H](NC(=O)[C@@H](CCC(=O)O)NC(=O)[C@H](Cc2ccc(O)cc2)NC(=O)CCC(C(=O)O)N2CCN(CC(=O)O)CCN(CC(=O)O)CC2)C(=O)N2CC(O)C[C@H]2C(=O)N[C@@H](Cc2ccc(O)c(Cl)c2)C(=O)NCC(=O)N[C@@H](CC(C)C)C(=O)N1)C(=O)N[C@@H](CCC(N)=O)C(N)=O (stereo partly drawn) [Compound ^68Ga-16, metal not drawn] ({NODAGA}-Y[dE]C[X1][Tyr(3-Cl)]GLCYIQ-NH2; disulfide 3-8) | – | – | – | rapidly formed metabolites | – | – |
| CC[C@H](C)[C@H](NC(=O)[C@H](Cc1ccc(O)cc1)NC(=O)[C@@H]1CSSC[C@H](NC(=O)[C@@H](CCC(=O)O)NC(=O)[C@@H](Cc2ccc(O)cc2)NC(=O)c2ccc(F)nc2)C(=O)N2C[C@H](O)C[C@H]2C(=O)N[C@@H](Cc2ccc(O)c(Cl)c2)C(=O)NCC(=O)N[C@@H](CC(C)C)C(=O)N1)C(=O)N[C@@H](CCC(N)=O)C(N)=O [Compound 6, -y-e-C-Hyp-Y(3-Cl)-G-L-C-Y-I-Q-] ({Nicotinoyl(6-F)}-[dY][dE]C[Hyp][Tyr(3-Cl)]GLCYIQ-NH2; disulfide 3-8) | greatest stability | 340 nM | < 600 nM | – | – | – |
| {6‑(18F)fluoronicotinoyl}-Y[dE]C[Hyp][Tyr(3-Cl)]GLCYIQ-NH2 (disulfide 3-8, In the plate assay the tracer was mixed with 0.01-50 µM cold Compound 7; also called the fluorine-18 form of Compound 7) [Compound 18F-7] | – | – | – | – | 1600 nM | 1800 nM |
